Assays:
PBMCs = assay: ART release from nanoparticles / free drug: intracellular drug levels in PBMCs by HPLC
Method: High pressure liquid chromatography (HPLC): HPLC was performed using a previously reported method (Weller et al., J. Chromatogr. B Analyt. Technol. Biomed. Life Sci., 2007, 848(2):369-73). Briefly, the equipment included a pump (LC-10ATvp), system controller (SIL-10ADvp); degasser unit (DGU-14A), refrigerated auto-sampler (SIL-10ADvp); and a UV-Vis detector (SPD-10ADvp) and a column heater (set at 35° C.) (all from Shimadzu Corporation, Columbia, Md.). Samples were run through a C18 pre-column and a Jupiter C18 reverse-phase [150×3.9 mm (I.D.)] with […] particle size packing (Phenomenex, Torrance, Calif.). The mobile phase was 25 mM KHPO4 (pH 4.9) and acetonitrile (40:60). The mobile phase was filtered and degassed prior to use. Flow rate was set at 0.9 mL/min and the detector was set at 212 nm. […] Peak area from the samples and standards were integrated using EZ-Start chromatography software (Shimadzu) on a Dell computer. Injection volume was 20 μL and all samples were analyzed in duplicate and averaged. Standards were analyzed in triplicate and averaged.
Human monocyte isolation and cultivation: Human PBMCs were obtained from whole blood collection of HIV-1, -2 and hepatitis B seronegative donor and purified using CPT Vacutainer tubes (BD and Co., Sparks, Md.) according to the manufacturer instructions. […] (1×10^6 cells/mL) were cultured in DMEM supplemented with 10% heat-inactivated pooled human serum, 1% glutamine, 1% penicillin-streptomycin, and 10 µg/mL ciprofloxacin (Sigma Chemical Co) then filter sterilized. The PBMCs were used within 2 hours after blood collection. Media was one-half exchanged with fresh media every 2-3 days. These cells were used for ART drug release experiments from nanoparticles as determined by HPLC. Human PBMCs at 5×10^6 were cultured in DMEM supplemented with 10% heat-inactivated pooled human serum, 1% glutamine, 1% penicillin-streptomycin, and 10 µg/mL ciprofloxacin (Sigma Chemical Co), and 1000 U/mL highly purified recombinant human macrophage colony stimulating factor (MCSF; R&D Systems, Inc; Minneapolis, Minn.) for seven days. Media was one-half exchanged very 2-3 days. Monocyte-derived macrophages (MDM) were used for TEM and fluorescent imaging.
ART Release from Nanoparticles: Antiretroviral nanoparticles (100 μg) were added to PBMC cell cultures. Flasks containing PBMCs and ART nanoparticles were placed in a 37° C., 5% CO2 incubator. At the appointed time, media in the flask was placed in a sterile 15 mL conical tube and centrifuged (400×G, 24° C. for 10 minutes). Cells (250 μL) were removed from the tube and put into a microfuge tube for HPLC analysis. […] Cell samples were placed in microfuge tubes, 250 μL of 100% methanol was added to lyse the cells then the cells were frozen (−20° C.) until assayed for ART drugs using HPLC. When HPLC was performed, microfuge tubes were thawed, centrifuged at 15,000 rpm at 4 C for 10 minutes and an aliquot of supernatant was placed into autosampler vials with glass insert. Free drugs (25 μg/mL of each ART drug) was dissolved in HPLC-grade ethanol, incubated with the PBMCs and cells were removed at 2, 4, 8, 24, and 48 hours, lysed with methanol, centrifuged, and assayed by HPLC as controls of these experiments.

[1] = Nanoparticle characterization (size, zeta potential, drug loading, entrapment efficiency); type: physicochemical; conditions: per drug, HPLC
Method: Briefly, in a typical procedure, a solution of ethylene oxide/propylene oxide block copolymer (Poloxamer-127; 2% [w/v] in double distilled water (ddH2O 10 mL); BASF, Mt. Olive, N.J.) was homogenized with ART drug powder (1 mg of each) in poly-lactic-co-glycolic acid) (PLGA) polymer (molecular weight 110,000-139,000 Daltons (100 mg) in 10 mL methylene chloride) using a probe sonicator (21W for 6 min) (Sonicator XL, Misonix, Farmingdale, N.Y.). The water-in-oil emulsion thus formed was further emulsified into 30 mL of 0.25% (w/v) aqueous solution of polyvinyl alcohol (PVA) as an emulsifier by using sonication as described above for 5 minutes to fowl multiple water-in-oil-in-water emulsion. […] Additionally, 6-hydroxycoumarin (a fluorescent dye; 1% w/v) was added to the polymer solution and one milligram of each ART were fabricated to make fluorescent nanoparticles for flow cytometry. In all formulation procedures, the emulsion was stirred for approximately 18 hours at room temperature to evaporate the organic solvent, methylene chloride, followed by ultracentrifugation (15,000 G for 45 minutes at 4° C., Optima LE-80K, Beckman, Palo Alto, Calif.), rinsed twice with ddH2O to remove PVA, and unentrapped drugs, and then lyophilized (Labconco, Freezone 4.5 at −52° C. and 5.62 torr) for 24 hours to obtain a dry powder.
Nanoparticle characterization: Nanoparticles were evaluated for size by […] as well as scanning electron microscopy (SEM) and surface charge by using a zeta potential analyzer (ZetaPlus, Brookhaven Instruments, Holtsville, N.Y.). For SEM, a sample of nanoparticles was suspended in water (0.2 mg/ml) and an aliquot of suspended particles were placed onto a tip and sputter coated with 2% w/v uranyl acetate, dried, and then visualized by using a JEOL-40A (JEOL Ltd, Sheboygan, Wis.) scanning electron microscope. Additionally, one milligram of formed particles was dissolved in one milliliter methylene chloride in glass tubes and evaporated overnight in quadruplicate. High pressure liquid chromatography (HPLC) mobile phase (200 μL) reconstituted the tubes. The tubes were centrifuged (11,000 rpm, 10 minutes, 4° C.) and aliquots were injected into the HPLC equipment to determine ART drug loading and entrapment efficiency.
Standards were analyzed in triplicate and averaged.

in vivo = conditions: for MRT: MRT (mean residence time within the serum)
Method: (§1) The particles were weighed, reconstituted with PBS and 500 μg was injected intraperitoneally (IP) into male BALB/c mice. At specific times, (free: 0.08, 0.167, 0.25, 0.33, 1, 2 and 3 days; antiretroviral nanoparticles: 0.167, 0.33, 1, 2, 4, 7, 14, 21, 28, and 35 days) mice (n=3/time point) were euthanized and selected organs and serum were harvested for antiretroviral drug levels. Results are presented as mean±SEM.
(§2) The nanoparticle powder was weighed and 500 μg was dissolved in phosphate-buffered saline (PBS) and injected intraperitoneally into each BALB/c male mice (25-28 g). […] At specified times points, mice (n=3-4) were euthanized using a CO2 chamber and organs (spleen, liver, kidney, brain, testes) and blood (100-150 μL) were removed from each of the mice. Blood was allowed to clot, centrifuged (1000×G) and serum was harvested. The organs were harvested and immediately placed on ice. At weekly intervals, an aliquot of the organ tissue was weighed and 500 μL of 100% methanol was added to tissue and serum samples. The tissue was homogenized using a pellet homogenizer, equilibrated at 4° C. for 30 minutes, and then centrifuged (11,400 RPM×15 minutes at 4° C.). An aliquot of the supernatant (20 μL/injection) was added to autosampler vials with glass inserts. […] Duplicate samples from tissues and serum were assayed and standards were assayed in triplicate. The organ/serum samples were compared to the standard curve (45-1000 ng/ml) that was performed on that day using peak area and EZ-Chrom software (Shimadzu, Corp.).
Data is presented as mean±SEM where appropriate. Serum concentration-time curves were used to determine pharmacokinetic parameters. Elimination rate constant was determined using nonlinear regression of the terminal phase of the serum concentration-time curve. Apparent volume of distribution, total body clearance, mean residence time and area under the serum concentration-time curve to the last concentration obtained (AUC0-last) were determined by non-compartmental modeling.

[2] = Drug levels in organs and serum of mice after a single intraperitoneal dose; conditions: male, BALB/c, mouse, liver, ip, 500 μg
Method: as §1
as §2, with “The organ/serum samples were compared to the standard curve (45-1000 ng/ml) that was performed on that day using peak area and EZ-Chrom software (Shimadzu, Corp.).” left out

[3] = male, BALB/c, mouse, in vivo, ip, 500 ug
[4] = male, BALB/c, mouse, in vivo, ip, 500 ug, Elimination half-life, drug given as PLGA nanoparticles, averaging
[5] = male, BALB/c, mouse, in vivo, ip, 500 ug, Free ART
[6] = male, BALB/c, mouse, in vivo, ip, 500 ug, NP ART
[7] = male, BALB/c, mouse, in vivo, ip, 500 ug, T1/2 (elimination half-life), Free ART
[8] = male, BALB/c, mouse, in vivo, ip, 500 ug, T1/2 (elimination half-life), NP ART
[9] = PLGA NPs 500 μg IP, mice, listed as E

Cc1cccc(C)c1OCC(=O)N[C@@H](Cc1ccccc1)[C@@H](O)C[C@H](Cc1ccccc1)NC(=O)[C@H](C(C)C)N1CCCNC1=O [LPV, lopinavir]
Time of intracellular peak concentration, free drug (PBMCs; human, 25 μg/mL): 8 h | Time to elimination of free drug from PBMCs (PBMCs; human, 25 μg/mL): ≤ 48 h | Intracellular peak level, drug given as nanoparticles (PBMCs; human, 100 μg): 4.1+2.0 μg | Time of intracellular peak concentration, drug given as nanoparticles (PBMCs; human, 100 μg): 96 h | Time of intracellular peak level, drug given as nanoparticles (PBMCs; human, 100 μg): 4 days | Antiretroviral drug loading of the nanoparticles [1]: 5.2% | Vd (volume of distribution), Free ART (in vivo; [3]): 41.6 ± 31.7 L/kg | Vd (volume of distribution), NP ART (in vivo; [3]): 118.6 ± 165.9 L/kg | half-life (in vivo; [4]): > 1680 h | MRT (in vivo; [5]): 14.4 h | MRT (in vivo; [6]): 5490 h | half-life (in vivo; [7]): 15.1 ± 6.4 h | half-life (in vivo; [8]): 645 h | AUC (area under the serum concentration-time curve), NP ART (in vivo; mouse, in vivo, ip, 500 ug): L: 3329.8 ± 1785.3 ng-day/ml

O=C1Nc2ccc(Cl)cc2[C@@](C#CC2CC2)(C(F)(F)F)O1 [EFV, efavirenz]
concentration at 28 day [2]: 1020 ± 440 ng/g | Intracellular peak level, drug given as nanoparticles (PBMCs; PLGA NPs (100 μg) incubated with PBMCs): 10.6+2.7 μg | Time of intracellular peak concentration, drug given as nanoparticles (PBMCs; PLGA NPs incubated with PBMCs): 24 h | Time of intracellular peak level, drug given as nanoparticles (PBMCs; PLGA NPs incubated with PBMCs (summary of Example 1)): 4 days | Intracellular peak concentration, free drug (PBMCs; free drug 25 μg/mL in ethanol, PBMCs, at 8 hours): 3.1+0.02 μg | Time of intracellular peak concentration, free drug (PBMCs; free drug, PBMCs): 8 h | Time to elimination of free drug from PBMCs (PBMCs; human, 25 μg/mL): ≤ 48 h | Antiretroviral drug loading of the nanoparticles [1]: 10.8% | Entrapment efficiency [1]: 86% | Peak serum level, drug given as PLGA nanoparticles (in vivo; PLGA NPs 500 μg IP single dose, mice): 853.2 ± 64.1 ng/mL | AUC (area under the serum concentration-time curve), NP ART (in vivo; PLGA NPs 500 μg IP, mice): E: 5716.9 ± 3177.7 ng-day/ml | ClT (total body clearance), NPs (in vivo; PLGA NPs 500 μg IP, mice): 2.85 ± 2.12 mL/min/kg | Time of peak serum level, drug given as PLGA nanoparticles (in vivo; PLGA NPs 500 μg IP, mice): 0.25 h | Vd (volume of distribution), NP ART (in vivo; PLGA NPs 500 μg IP, mice): 11.38 ± 10.72 L/kg | MRT (mean residence time within the serum), NP ART (in vivo; [9]): E: 10.3 ± 4.24 days | Vd (volume of distribution), NP ART (in vivo; [9]): E: 11.4 ± 10.7 L/kg | Peak serum level, free drug (in vivo; free drugs 500 μg IP single dose, mice, 4 hours post-injection): 3.5 ± 1.9 µg/L | AUC (area under the serum concentration-time curve, AUC0-last), Free ART (in vivo; free drugs 500 μg IP, mice): 646 ± 640 ng·days/mL | Time of peak serum level, free drug (in vivo; free drugs 500 μg IP, mice): 4 h | Vd (volume of distribution), Free ART (in vivo; free drugs 500 μg IP, mice): 39.3 ± 26.6 L/kg | T1/2 (elimination half-life), Free ART (in vivo; free drugs 500 μg IP, mice, serum, listed as E): E: 11.76 ± 2.8 hrs | AUC (area under the serum concentration-time curve, AUC0-last), Free ART (in vivo; [3]): E: 645. 9 ± 640.2 ng-day/ml | MRT (in vivo; male, BALB/c, mouse, serum, ip, 500 ug, Free ART, free drugs 500 μg IP, mice): 13.7 h | MRT (in vivo; male, BALB/c, mouse, serum, ip, 500 ug, NP ART, PLGA NPs 500 μg IP, mice): 248 h | half-life (in vivo; male, BALB/c, mouse, serum, ip, 500 ug, T1/2 (elimination half-life), Free ART, free drugs 500 μg IP, mice): 11.8 ± 2.8 h | half-life (in vivo; male, BALB/c, mouse, serum, ip, 500 ug, T1/2 (elimination half-life), NP ART, PLGA NPs 500 μg IP, mice): 35.5 h

CC(C)c1nc(CN(C)C(=O)N[C@H](C(=O)N[C@@H](Cc2ccccc2)C[C@H](O)[C@H](Cc2ccccc2)NC(=O)OCc2cncs2)C(C)C)cs1 [RTV, ritonavir]
Time of intracellular peak concentration, free drug (PBMCs; human, 25 μg/mL): 8 h | Time to elimination of free drug from PBMCs (PBMCs; human, 25 μg/mL): ≤ 48 h | Intracellular peak level, drug given as nanoparticles (PBMCs; human, 100 μg): 2.5+1.1 μg | Time of intracellular peak concentration, drug given as nanoparticles (PBMCs; human, 100 μg): 96 h | Time of intracellular peak level, drug given as nanoparticles (PBMCs; human, 100 μg): 4 days | Antiretroviral drug loading of the nanoparticles [1]: 4.9% | Vd (volume of distribution), Free ART (in vivo; [3]): 9.7 ± 4.4 L/kg | Vd (volume of distribution), NP ART (in vivo; [3]): 549.9 ± 360 L/kg | half-life (in vivo; [4]): > 1680 h | MRT (in vivo; [5]): 4.8 h | MRT (in vivo; [6]): 775 h | half-life (in vivo; [7]): 9.6 ± 2.8 h | half-life (in vivo; [8]): 5500 h | AUC (area under the serum concentration-time curve), NP ART (in vivo; mouse, in vivo, ip, 500 ug): R: 7020.5 ± 11428.7 ng-day/ml
